Data published in patent US20260327243A1, “SPIRO-HETEROCYCLIC INHIBITORS OF KRAS G12C MUTANT PROTEINS AND USES THEREOF” (AMGEN INC., priority 2023, published 2026).

Columns and labels:
[1] = biological target: KRAS^G12C (Homo sapiens, UniProt P01116, C118A/G12C); experiment: Coupled Nucleotide Exchange Assay; format: biochemical; settings: GDP-bound KRAS (aa 1-169) G12C/C118A; 2 h compound pre-incubation; SOS-mediated exchange, 30 min; cRAF binding (AlphaLISA)
Method in brief: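 GDP-bound His-tagged KRAS aa 1-169 (G12C/C118A) pre-incubated 2 h with compound in 25 mM HEPES pH 7.4, 10 mM MgCl2, 0.01% Triton X-100 (±0.1% BSA), then SOS (aa 564-1049) plus GTP added for 30 min. GST-cRAF RBD binding read by AlphaLISA; DMSO-normalized, 4-parameter fit gives IC50.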

[2] = system: A549 cells; experiment: Cell Viability Assay, A549; format: cell-based; settings: A549; human lung carcinoma; 72 h; CellTiter-Glo
Description: (§1) MIA PaCa-2 (human pancreatic carcinoma; ATCC CRL-1420) or A549 (human lung carcinoma; ATCC CCL-185) cells were cultured in RPMI 1640 medium containing 10% fetal bovine serum and 1×penicillin/streptomycin/L-glutamine. Cells were seeded in 384-well plates at a density of 1.67E+04 cells/mL and incubated at 37° C., 5% CO2, overnight. Serially-diluted compound or DMSO was added to the cells, and plates were incubated at 37° C., 5% CO2 for 72 h. Cell viability was measured using a CellTiter-Glo® Luminescent Cell Viability Assay kit (Promega) according to the manufacturer's protocol. The luminescence signal of treated samples was normalized to DMSO control, and data were analyzed using a 4-parameter logistic model to calculate IC50 values.
(§2) The following data (Table 3) categorizes the IC50 of each compound for inhibiting enzymatic activity of KRAS^G12C in the indicated cells.

[3] = system: MIA PaCa-2 cells; experiment: Cell Viability Assay, MIA PaCa-2; format: cell-based; settings: Homo sapiens, MIA PaCa-2, 72 h, human pancreatic carcinoma, CellTiter-Glo
Description: as §1, §2

KRAS^G12C, sequence (P01116 1-169 isoform P01116-2 G12C/C118A): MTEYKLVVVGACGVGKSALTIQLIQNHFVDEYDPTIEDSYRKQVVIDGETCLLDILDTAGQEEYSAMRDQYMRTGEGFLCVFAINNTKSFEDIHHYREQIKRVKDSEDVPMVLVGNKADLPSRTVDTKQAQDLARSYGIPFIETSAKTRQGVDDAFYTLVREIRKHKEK

| IC50 [1] [nM] | IC50 [2] [µM] | IC50 [3] [nM] | SMILES |
| --- | --- | --- | --- |
| 40 | > 5 | 155 | C=CC(=O)N1CCN([C@@H]2CN(c3cc(N4CCC5(CC4)OC[C@@H](C)n4ncc(C)c45)nc(C(F)(F)F)n3)[C@@H]2C)CC1 [Compound 3-100, 1-(4-((2R,3R)-1-(6-((7′R)-3′,7′-dimethyl-6′,7′-dihydro-1H-spiro[piperidine-4,4′-pyrazolo[5,1-c][1,4]oxazin]-1-yl)-2-(trifluoromethyl)-4-pyrimidinyl)-2-methyl-3-azetidinyl)-1-piperazinyl)-2-propen-1-one] |
| 106 | > 5 | 189 | C=CC(=O)N1CCN([C@@H]2CN(c3cc(N4CC[C@]5(C[C@H]4C)OC[C@@H](CO)n4ncc(C)c45)nc(C(F)F)n3)[C@@H]2C)CC1 (single isomer, unassigned) [Compound 3-088-1] |
| 69 | > 5 | 145 | C=CC(=O)N1CCN([C@@H]2CN(c3cc(N4CCC5(CC4)OCC(COC)n4ncc(C)c45)nc(C(F)(F)F)n3)[C@@H]2C)CC1 (stereo partly drawn) [Compound 3-082, 1-(4-((2R,3R)-1-(6-(7′-(methoxymethyl)-3′-methyl-6′,7′-dihydrospiro[piperidine-4,4′-pyrazolo[5,1-c][1,4]oxazin]-1-yl)-2-(trifluoromethyl)pyrimidin-4-yl)-2-methylazetidin-3-yl)piperazin-1-yl)prop-2-en-1-one] |
| 23 | > 5 | 77 | C=CC(=O)N1CCN([C@@H]2CN(c3cc(N4CCC5(CC4)OC4(COC4)c4nccc(C)c45)nc(C(F)(F)F)n3)[C@@H]2C)CC1 [Compound 3-102, 1-(4-((2R,3R)-2-methyl-1-(6-(4′-methyl-1″H-dispiro[oxetane-3,7′-furo[3,4-b]pyridine-5′.4″-piperidin]-1″- yl)-2-(trifluoromethyl)-4-pyrimidinyl)-3-azetidinyl)-1-piperazinyl)-2-propen-1-one] |
| 31 | > 5 | 159 | C=CC(=O)N1CCN([C@@H]2CN(c3cc(N4CCC5(CC4)OC(C)(C)c4nccc(C)c45)nc(C(F)(F)F)n3)[C@@H]2C)CC1 [Compound 3-095] |
| 85 | > 5 | 226 | C=CC(=O)N1CCN([C@@H]2CN(c3cc(N4CCC5(CC4)OC[C@@H](COC)n4ncc(C)c45)nc(C(F)(F)F)n3)[C@@H]2C)CC1 [Compound 3-097, 1-(4-((2R,3R)-1-(6-((7′R)-7′-(methoxymethyl)-3′-methyl-6′,7′-dihydro-1H-spiro[piperidine-4,4′-pyrazolo[5,1-c][1.4]oxazin]-1-yl)-2-(trifluoromethyl)-4-pyrimidinyl)-2-methyl-3-azetidinyl)-1-piperazinyl)-2-propen-1-one] |
| 48 | > 5 | 78 | C=CC(=O)N1CCN([C@@H]2CN(c3cc(N4CC[C@]5(C[C@H]4C)OC[C@@H](CO)n4ncc(C)c45)nc(C(F)(F)F)n3)[C@@H]2C)CC1 (single isomer, unassigned) [Compound 3-087-1] |
| 21 | > 5 | 81 | C=CC(=O)N1CCN([C@@H]2CN(c3cc(N4CC[C@]5(C[C@H]4C)OC4(COC4)c4nccc(C)c45)nc(C(F)(F)F)n3)[C@@H]2C)CC1 [Compound 3-104, 1-(4-((2R,3R)-1-(6-((2″R,5′R)-2″,4′-dimethyl-1″H-dispiro[oxetane-3,7′-furo[3,4-b]pyridine-5′,4″-piperidin]-1″- yl)-2-(trifluoromethyl)-4-pyrimidinyl)-2-methyl-3-azetidinyl)-1-piperazinyl)-2-propen-1-one] |
| 176 | > 5 | 172 | C=CC(=O)N1CCN([C@@H]2CN(c3cc(N4CC[C@]5(C[C@H]4C)OCC(CF)n4ncc(C)c45)nc(C(F)F)n3)[C@@H]2C)CC1 (stereo partly drawn) [Compound 3-084, 1-(4-((2R,3R)-1-(2-(difluoromethyl)-6-((2R,4R)-7′-(fluoromethyl)-2,3′-dimethyl-6′,7′-dihydrospiro[piperidine-4,4′-pyrazolo[5,1-c][1,4]oxazin]-1-yl)pyrimidin-4-yl)-2-methylazetidin-3-yl)piperazin-1-yl)prop-2-en-1-one] |
| 527 | > 5 | 1310 | C=CC(=O)N1CCN(C2CN(c3cc(N4CCC5(CC4)O[C@H](C)C=C5Cl)nc(C(F)(F)F)c3C#N)C2)CC1 (single isomer, unassigned) [Compound 3-067-1] |

The next lines start with the molecule.

| SMILES | IC50 [1] [nM] | IC50 [2] [µM] | IC50 [3] [nM] |
| --- | --- | --- | --- |
| C=CC(=O)N1CCN([C@@H]2CN(c3cc(N4CCC5(CC4)OCCc4ncsc45)nc(C(F)(F)F)n3)[C@@H]2C)CC1 [Compound 3-002, 1-(4-((2R,3R)-1-(6-(6′,7′-Dihydrospiro[piperidine-4,4′-pyrano[4,3-d]thiazol]-1-yl)-2-(trifluoromethyl)pyrimidin-4-yl)-2-methylazetidin-3-yl)piperazin-1-yl)prop-2-en-1-one] | 315 | > 5 | 625 |
| C=CC(=O)N1CCN(C2CN(c3cc(N4CCC5(CC4)OCCC5F)nc(C(F)(F)F)c3C#N)C2)CC1 (stereo not drawn) [Compound 3-058, 4-(3-(4-Acryloylpiperazin-1-yl)azetidin-1-yl)-6-(4-fluoro-1-oxa-8-azaspiro[4.5]decan-8-yl)-2-(trifluoromethyl)nicotinonitrile] | 920 | > 5 | > 5000 |
| C=CC(=O)N1CCN(C2CN(c3cc(N4CCC5(CC4)CC(Br)=NO5)nc(C(F)(F)F)c3C#N)C2)CC1 [Compound 3-017, 4-(3-(4-acryloylpiperazin-1-yl)-azetidin-1-yl)-6-(3-bromo-1-oxa-2.8-diazaspiro[4.5]dec-2-en-8-yl)-2-(trifluoromethyl)nicotinonitrile] | 828 | > 5 | 1990 |
| C=CC(=O)N1CCN(C2CN(c3cc(N4CCC5(CC4)OCC=C5C)nc(C(F)(F)F)c3C#N)C2)CC1 [Compound 3-051, 4-(3-(4-Acryloylpiperazin-1-yl)azetidin-1-yl)-6-(4-methyl-1-oxa-8-azaspiro[4.5]dec-3-en-8-yl)-2-(trifluoromethyl)nicotinonitrile] | 102 | > 5 | 284 |
| C=CC(=O)N1CCN(C2CN(c3cc(N4CCC5(CC4)OCc4ncsc45)nc(C(F)(F)F)c3C#N)C2)CC1 [Compound 3-046, 4-(3-(4-Acryloylpiperazin-1-yl)azetidin-1-yl)-6-(4H-spiro[furo[3,4-d]thiazole-6,4′-piperidin]-1′-yl)-2-(trifluoromethyl)nicotinonitrile] | 253 | > 5 | 1140 |
| C=CC(=O)N1CCN([C@@H]2CN(c3cc(N4CCC5(C[C@H]4C)OCC=C5C)nc(C(F)(F)F)n3)[C@@H]2C)CC1 (stereo partly drawn) [Compound 3-005, 1-(4-((2R,3R)-1-(6-(4.7-dimethyl-1-oxa-8-azaspiro[4.5]dec-3-en-8-yl)-2-(trifluoromethyl)pyr-imidin-4-yl)-2-methylazetidin-3-yl)piperazin-1-yl)prop-2-en-1-one] | 184 | > 5 | 626 |
| C=CC(=O)N1CCN(C2CN(c3cc(N4CCC5(CC4)OC(C)C=C5C)nc(C(F)(F)F)c3C#N)C2)CC1 (stereo not drawn) [Compound 3-053, 4-(3-(4-Acryloylpiperazin-1-yl)azetidin-1-yl)-6-(2,4-dimethyl-1-oxa-8-azaspiro[4.5]dec-3-en-8-yl)-2-(trifluoromethyl)nicotinonitrile] | 191 | > 5 | 755 |
